Patent US7723320B2, “Use of estrogen compounds to increase libido in women” (Pantarhei Bioscience B.V., priority 2001, dated 2010)

Columns and labels:
[1] = molecular target: T1, human sex Hormone Binding Globulin (SHBG) (Homo sapiens, UniProt P04278); experiment: Competitive steroid-binding assay, SHBG; conditions: [3H]DHT or [3H]estradiol as labeled ligands
T1 construct: made in house; host or cells: transgenic mouse (purified from serum)
T1 sequence (P04278 30-402): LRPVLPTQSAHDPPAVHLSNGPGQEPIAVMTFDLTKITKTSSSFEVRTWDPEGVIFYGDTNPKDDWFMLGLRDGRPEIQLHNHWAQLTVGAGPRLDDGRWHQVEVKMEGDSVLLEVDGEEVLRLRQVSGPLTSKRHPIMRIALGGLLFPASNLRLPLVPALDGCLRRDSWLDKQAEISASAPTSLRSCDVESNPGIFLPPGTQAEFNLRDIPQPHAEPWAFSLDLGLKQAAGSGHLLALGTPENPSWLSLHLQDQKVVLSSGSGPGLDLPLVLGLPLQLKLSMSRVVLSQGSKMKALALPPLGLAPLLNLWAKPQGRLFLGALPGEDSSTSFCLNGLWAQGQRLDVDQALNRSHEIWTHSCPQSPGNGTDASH
Procedure: Human SHBG was treated for 30 min at room temperature with a dextran-coated charcoal (DCC) suspension in phosphate buffered saline (PBS) to remove any steroid ligand. After centrifugation (2,000×g for 10 min) to sediment the DCC, the supernatant containing the human SHBG was diluted in PBS to a concentration of 1 nM based on its steroid binding capacity.
The average amounts of [^3H]labeled ligands bound to SHBG at each concentration of competitor (B) were expressed as a percentage of the average amounts of [^3H]labeled ligands bound to SHBG in the absence of competitor (B0), and were plotted against the concentration of competitor in each assay tube.

[2] = test system: ovariectomized adult rats; experiment: Vaginal cornification bioassay in ovariectomized rats; format: in vivo, rat; conditions: 0.05 mg/kg/day
Source text: Uterine weight increase in the rat is more commonly used as a measure of estrogenicity. […] In the early 1920s it was discovered that follicular fluid from the pig ovary contained a factor(s) that caused cornification/keratinization of the vaginal epithelium in the rat (Allen and Doisy, 1923, JAMA, 81,819-821; Allen and Doisy, 1924, Am. J. Physiol., 69, 577-588). The so-called vaginal cornification response in rats subsequently provided a bioassay for testing estrogenicity. Vaginal epithelial cornification/keratinization in ovariectomized rats can be produced only by compounds considered to be true estrogens (Jones et al, 1973, Fert. Steril. 24, 284-291). […] Adult intact female CD rats were ovariectomized to induce estrogen deficiency. […] Castrate vaginal smears are indicative that complete ovanectomy was achieved. Treatment commenced following completion of the 7 days of smearing (day 0=first day of dosing). Animals were dosed, once daily for 7 consecutive days. Daily vaginal lavages continued to be obtained for 7 days after dosing was initiated in order to detect vaginal cornification, as an indication of an estrogenic response. A drop of vaginal washings was placed on a glass slide and examined by light microscopy to detect the presence or absence of cornified epithelial cells. Vaginal lavages were obtained prior to dosing on days 0-6 and prior to necropsy on day 7. The vaginal cornification bioassay was performed in order to determine the estrogenic profile of E4 when given subcutaneously (sc) to ovariectomized adult rats. E2 was used as a positive control. […] The vaginal cornification bioassay was performed in order to determine the estrogenic profile of E4 when given orally (po) to ovariectomized adult rats. EE was used as a positive control. […] A vaginal estrogenic response occurred in all rats (8/8) given 50 μg/kg/day EE po by day 7 (Table 2).

In the case of `C[C@]12CCC(=O)C[C@@H]1CC[C@@H]1[C@@H]2CC[C@]2(C)[C@@H](O)CC[C@@H]12` [5α-dihydrotestosterone], the “relative binding affinity for human SHBG” value [1] is reported as “in this order, show an increased relative binding affinity”.
`C[C@]12CC[C@@H]3c4ccc(O)cc4CC[C@H]3[C@@H]1CC[C@@H]2O` [E2, 17β-estradiol, reference compound] was tested, and the “Number of Rats Exhibiting Estrogenic Response/Number of Rats Treated” value ([2]; sc, Day 0) was 0/8, the “Number of Rats Exhibiting Estrogenic Response/Number of Rats Treated” value ([2]; sc, Day 1) was 0/8 and the “Number of Rats Exhibiting Estrogenic Response/Number of Rats Treated” value ([2]; sc, Day 2) was 8/8. The “Number of Rats Exhibiting Estrogenic Response/Number of Rats Treated” value ([2]; sc, Day 3) was 8/8, the “Number of Rats Exhibiting Estrogenic Response/Number of Rats Treated” value ([2]; sc, Day 4) was 8/8 and the “Number of Rats Exhibiting Estrogenic Response/Number of Rats Treated” value ([2]; sc, Day 5) was 8/8. The “Number of Rats Exhibiting Estrogenic Response/Number of Rats Treated” value ([2]; sc, Day 6) was 8/8 and the “Number of Rats Exhibiting Estrogenic Response/Number of Rats Treated” value ([2]; sc, Day 7) was 8/8.
In the case of `C#C[C@]1(O)CC[C@H]2[C@@H]3CCc4cc(O)ccc4[C@H]3CC[C@@]21C` [EE, 17α-ethinylestradiol, reference compound], the “Number of Rats Exhibiting Estrogenic Response/Number of Rats Treated” value ([2]; po, Day 0) is reported as 0/8, the “Number of Rats Exhibiting Estrogenic Response/Number of Rats Treated” value ([2]; po, Day 1) is reported as 1/8 and the “Number of Rats Exhibiting Estrogenic Response/Number of Rats Treated” value ([2]; po, Day 2) is reported as 3/8. The “Number of Rats Exhibiting Estrogenic Response/Number of Rats Treated” value ([2]; po, Day 3) was 8/8, the “Number of Rats Exhibiting Estrogenic Response/Number of Rats Treated” value ([2]; po, Day 4) was 8/8 and the “Number of Rats Exhibiting Estrogenic Response/Number of Rats Treated” value ([2]; po, Day 5) was 8/8. For the same compound, the “Number of Rats Exhibiting Estrogenic Response/Number of Rats Treated” value ([2]; po, Day 6) was 8/8 and the “Number of Rats Exhibiting Estrogenic Response/Number of Rats Treated” value ([2]; po, Day 7) was 8/8.
In the case of `C[C@]12CC[C@H]3[C@@H](CCC4=CC(=O)CC[C@@]43C)[C@@H]1CC[C@@H]2O` [testosterone], the “relative binding affinity for human SHBG” value [1] is reported as “in this order, show an increased relative binding affinity”.
